From paper PMC2994747, “Molecular Characterization of c-Abl/c-Src Kinase Inhibitors Targeted against Murine Tumour Progenitor Cells that Express Stem Cell Markers” (PLoS ONE, 2010)
Like-named read-outs stand apart in the source and are kept apart here.

Legend:
A2C12 = experiment: MTS cell viability assay; assay type: cell-based, mouse
In short: (§1)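 CaCo2, HepG2, A549 and murine NSCLC lines grown in DMEM/10% FCS at 37°C, treated in triplicate with inhibitors or vehicle (0.2% DMSO) for 24 h or 96 h. MTS reagent added for 1 h; absorbance read at 490 nm.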

BetaD5 [1] = experiment: MTS cell viability assay; assay type: cell-based, mouse
In short: as §1

GammaA3 [2] = experiment: MTS cell viability assay; assay type: cell-based, mouse
In short: as §1

GammaD12 [3] = experiment: MTS cell viability assay; assay type: cell-based, mouse; conditions: MTS
In short: as §1

A549 [4] = experiment: MTS cell viability assay; assay type: cell-based, human
In short: as §1

CaCo2 [5] = experiment: MTS cell viability assay; assay type: cell-based, human
In short: as §1

HepG2 [6] = experiment: MTS cell viability assay; assay type: cell-based, human
In short: as §1

BetaD5 [7] = experiment: Cell cycle analysis by flow cytometry; assay type: cell-based, mouse; conditions: IC50 concentration, 96 h
In short: (§2)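 Cells trypsin-harvested, PBS-washed, stained with CycleTEST PLUS DNA kit (solution A 10 min at room temperature, then solutions B and C, C step at 4°C in dark). DNA content read by flow cytometry on FACScan.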

GammaA3 [8] = experiment: Cell cycle analysis by flow cytometry; assay type: cell-based, mouse; conditions: IC50 concentration, 96 h
In short: as §2

GammaD12 [9] = experiment: Cell cycle analysis by flow cytometry; assay type: cell-based, mouse; conditions: IC50 concentration, 96 h
In short: as §2

A549 [10] = experiment: Cell cycle analysis by flow cytometry; assay type: cell-based, human; conditions: IC50 concentration, 96 h
In short: as §2

CaCo2 [11] = experiment: Cell cycle analysis by flow cytometry; assay type: cell-based, human; conditions: IC50 concentration, 96 h
In short: as §2

HepG2 [12] = experiment: Cell cycle analysis by flow cytometry; assay type: cell-based, human; conditions: IC50 concentration, 96 h
In short: as §2

A549 [13] = experiment: Western blot, semi-quantitative protein expression; assay type: cell-based, human
Experimental: (§3) For the Western Blot analysis, cells were rinsed and lysed as previously described. An amount of 25 µg protein was used for SDS-PAGE. Antibodies for c-Abl (sc-131), Actin (sc-1616), Cdc2-p34 (sc-8395), EPS15 (sc-1840), FAK (sc-558), c-Fos (sc-52), p38 (sc-7972), p53 (sc-6243) and STAT5 (sc-835x) were obtained from Santa Cruz (Santa Cruz Biotechnology, Heidelberg, Germany), while c-Src (2109) and phospho-Src Y416 (2101) were purchased from Cell Signaling (Cell Signaling Technology, Frankfurt a. M., Germany). The EGFR (06-847), phospho-EGFR Y992 (07-821) and phospho-EGFR Y1045 (04-284) stem from Upstate (Upstate, Schwalbach, Germany) and the hnRNP-K (A300-676A) from Bethyl Labs (Bethyl Laboratories, Montgomery, Texas, USA). Finally p73 (IMG-246) was supplied by Imgenex (Imgenex, Hamburg, Germany). Depending on the primary antibody the secondary antibodies were either horseradish peroxidase-conjugated anti-mouse (AP 160P), anti-rabbit (AP 132P) or anti-sheep (AP 147P) (Chemicon, Schwalbach, Germany).
(§4) Semi-quantitative analysis were carried out with Kodak 1D Image Analysis Software in reference to the vehicle treated control cells (see supplementary table S7).

CaCo2 [14] = experiment: Western blot, semi-quantitative protein expression; assay type: cell-based, human
Experimental: as §3, §4

[15] = system: human and murine cell lines; experiment: Western blot, statements over human and murine cell lines; assay type: cell-based; conditions: IC50 concentration, 96 h
Experimental: as §3, §4

[16] = 24 h, read-out: Calculated IC50 after single treatment for 24 h
[17] = 96 h, read-out: Calculated IC50 after daily treatment for 96 h

IC50 (A549 [4]; [16]): 43.4 ± 8 µM | IC50 (A549 [4]; [17]): 8.3 ± 0.4 µM | IC50 (CaCo2 [5]; [16]): 77.1 ± 7.5 µM | IC50 (CaCo2 [5]; [17]): 6.8 ± 1.5 µM | IC50 (HepG2 [6]; [16]): 77.2 ± 7.5 µM | IC50 (HepG2 [6]; [17]): 25.5 ± 4.8 µM
Structure (SMILES): CSc1nc(NCCc2ccc(Cl)cc2)c2cnn(CC(Cl)c3ccccc3)c2n1 (centres unmarked) [Si57]
IC50 (A2C12; [16]): 24.8 ± 0.2 µM | IC50 (A2C12; [17]): 5.4 ± 0.3 µM | IC50 (BetaD5 [1]; [16]): 19.6 ± 1.5 µM | IC50 (BetaD5 [1]; [17]): 9.1 µM | IC50 (GammaA3 [2]; [16]): 26.6 ± 4.2 µM | IC50 (GammaA3 [2]; [17]): 5.8 ± 0.4 µM | IC50 (GammaD12 [3]; [16]): 14.6 ± 0.7 µM | IC50 (GammaD12 [3]; [17]): 4.8 ± 0.6 µM | Cells in G1 phase (BetaD5 [7]): 52.5% | Cells in G2 phase (BetaD5 [7]): 32.3% | Cells in S phase (BetaD5 [7]): 15.4% | Cells in G1 phase (GammaA3 [8]): 59.6% | Cells in G2 phase (GammaA3 [8]): 18% | Cells in S phase (GammaA3 [8]): 22.4% | Cells in G1 phase (GammaD12 [9]): 33% | Cells in G2 phase (GammaD12 [9]): 6% | Cells in S phase (GammaD12 [9]): 61.1% | Cells in G1 phase (A549 [10]): 70.5% | Cells in G2 phase (A549 [10]): 5.5% | Cells in S phase (A549 [10]): 24% | Cells in G1 phase (CaCo2 [11]): 41.7% | Cells in G2 phase (CaCo2 [11]): 18.1% | Cells in S phase (CaCo2 [11]): 40.2% | Cells in G1 phase (HepG2 [12]): 63.9% | Cells in G2 phase (HepG2 [12]): 8.1% | Cells in S phase (HepG2 [12]): 28% | Actin protein expression (A549 [13]): 92 | Cdc2-p34 protein expression (A549 [13]): 55 | EGFR Y992-p protein expression (A549 [13]): 58 | EGFR Y1045-p protein expression (A549 [13]): 6.66 | EGFR protein expression (A549 [13]): 9 | EPS15 protein expression (A549 [13]): 70 | FAK protein expression (A549 [13]): 154 | STAT5 protein expression (A549 [13]): 34 | c-Abl protein expression (A549 [13]): 43 | c-Fos protein expression (A549 [13]): 49 | c-Src Y416-p protein expression (A549 [13]): 65 | c-Src protein expression (A549 [13]): 100 | hnRNP-K protein expression (A549 [13]): 83 | p38 protein expression (A549 [13]): 27 | p53 protein expression (A549 [13]): 33 | p73 protein expression (A549 [13]): 24 | Actin protein expression (CaCo2 [14]): 131 | Cdc2-p34 protein expression (CaCo2 [14]): 119 | EGFR Y992-p protein expression (CaCo2 [14]): 163 | EGFR Y1045-p protein expression (CaCo2 [14]): 259 | EGFR protein expression (CaCo2 [14]): 37 | EPS15 protein expression (CaCo2 [14]): 122 | FAK protein expression (CaCo2 [14]): 111 | STAT5 protein expression (CaCo2 [14]): 123 | c-Abl protein expression (CaCo2 [14]): 217 | c-Fos protein expression (CaCo2 [14]): 129 | c-Src Y416-p protein expression (CaCo2 [14]): 155 | c-Src protein expression (CaCo2 [14]): 106 | hnRNP-K protein expression (CaCo2 [14]): 98 | p38 protein expression (CaCo2 [14]): 84 | p53 protein expression (CaCo2 [14]): 70 | p73 protein expression (CaCo2 [14]): 78 | hnRNP-K protein level [15]: remained equal
